Results published in patent US8362066B2, “Compounds and methods for treating protein folding disorders” (Treventis Corporation, priority 2006, dated 2013).
“Also recorded” adds a separate entry of the source.

How the values were obtained:
Aβ1-40 [1] = biological target: T1, Aβ1-40 (Homo sapiens, UniProt P05067); test: ThT fluorescence assay, inhibition of Aβ1-40 aggregation; format: biochemical
T1 construct: Both Aβ1-40 and Aβ1-42 were purchased from Anaspec; purchased Anaspec
Procedure: The compounds of the invention were evaluated for activity against Aβ aggregation in a kinetic thioflavin T (ThT) fluorescence assay similar to that of Chalifour, R. J., et al., J. Biol. Chem. (2003) 278: 34874-81. IC50 values for inhibition of Aβ1-40 aggregation in the ThT fluorescence assay for a number compounds of the present invention were determined. Values were calculated by solving the equation y=(m2)/(1+(x/m3)^m4) where y is percent aggregation, x is compound concentration, and m3 is the concentration giving 50% aggregation (i.e. IC50), using KaleidaGraph 4.0 (Synergy Software). Dye-binding ThT/ThS protein aggregation assays for Aβ, tau and α-synuclein were performed as described in Example 8 of US2007/0015813.

[2] = tested on: SH-SY5Y neuroblastoma cells; test: MTT cell viability assay, protection from Aβ40; format: cell-based; conditions: Aβ40 20 μM
Procedure: The assay was based on that reported by Conte and co-workers (Conte, A., Pellegrini, s. & Tagliazucchi, D. 2Q03. Brain Res. Bull. 62, 29-38). Briefly, Aβ1-40 (1.0 mg) was dissolved directly in Tris base ([…], […], pH approximately 10). The pH was dropped to 7.4 using concentrated HCl and the solution diluted ten-fold with growth medium consisting of Dulbecco's Modified Eagle Medium (high glucose) containing 10% fetal bovine serum. penicillin-G (10,000 units/mL) and streptomycin (10 mg/mL); giving 20 μM Aβ40. For non-Aβ-containing controls. growth medium was diluted 10% with Tris buffer (20 mM, pH 7.4). SH-SY5Y neuroblastoma cells were seeded at approximately 20,000 cells per well in a covered 96-well clear polystyrene plate and incubated at 37° C., 5% CO2 for 24 h. After discarding supernatant, growth medium (200 μL), containing either Aβ3-40 or vehicle (controls), was added to the wells, followed by test compound in DMSO (0.5 μL) or DMSO alone (controls). Incubations all had 5 or more replicates. After incubating for 6-10 h (37° C., 5% C02), the dye 3-(4,5-dimethylthiazol-2-yl)-2,5-diphenyltetrazolium bromide (MTT, 20 microL. 5 mg/mL in PBS) was added to each well and the plate incubated for another 2 h. Medium was discarded and the formazan product dissolved by adding DMSO (100 μL) and shaking. Absorbance was measured at 540 nm in a Tecan Genios microplate reader.

Aβ1-40 [3] = biological target: T1, Aβ1-40; test: Tris-tricine SDS-PAGE, Aβ1-40 self-assembly following ThT aggregation assay; format: biochemical; conditions: FIG. 9
Procedure: (§1) Pre-cast polyacrylamide gels were purchased from NuSep (10-20% Tris-tricine-SDS). These were chosen for their large separation range of 2.5 to 205 kDa. Molecular weight markers were purchased from Sigma Aldrich and diluted twenty fold for individual use. Three buffers were used for this technique: 1) Sample buffer (1.25 mL 0.5 M Tris-HCl (pH 6.8), 2.5 mL glycerol, 2.0 mL 10% SDS, 0.2 mL 0.5% bromophenol blue, 3.55 mL distilled water) which was used as the leading band in the gel. 2) Cathode Buffer (12.11 g tris base, 17.92 g tricine, 1 g SDS, diluted to 1 L with distilled water) which was the inner buffer in the tank assembly. 3) Anode Buffer (5× concentrated: 121.1 g tris base in 1 L of distilled water, pH 8.9 adjusted with concentrated HCl) which was the outer buffer and loaded at 1× concentration. Both Aβ1-40 and Aβ1-42 were purchased from Anaspec.
(§2) Five solutions were required to stain the gels using the silver stain protocol: 1) Fixer 1 (40% methanol, 10% acetic acid, diluted to 1 L with Millie-Q water) 2) Fixer 2 (45 g anhydrous sodium acetate, 300 mL methanol, 5 mL 25% glutaraldehyde, diluted to 1 L with Millie-Q water), 3) a) Silver stain A (15 mL of 25% ammonia solution, 0.8 g sodium hydroxide, diluted to 950 mL with Millie Q water). b) Silver stain B (6 g of silver nitrate in 50 mL Millie Q water). Solution B was then slowly added to solution A. 4) Developer (0.1 g citric acid, 1 mL formaldehyde, diluted to 1 L with Millie-Q water), 5) Stop solution (50 mL acetic acid, diluted to 1 L with Millie-Q water).
(§3) Following a ThT (Aβ1-40) or ThS (Tau 441) aggregation assay, described in Example 8 of US2007/0015813, samples were immediately aspirated and stored in centrifuge tubes. 10 μL of each sample was transferred to a microfuge tube and diluted 1:1 with sample buffer before being incubated (37° C.) for 30 minutes and loaded in the precast gels (15 μL in each well). The gel was then run at 100 V for approximately one hour or until the leading band reached the bottom of the gel.
(§4) Once the gel had finished running, it was removed from its plastic case and placed in a tray for staining. Approximately 200-250 mL volume was used for all the solutions. The gel was first washed with distilled water briefly to rinse off the excess buffer from the tank. It was then immersed in Fixer 1 for 30 minutes. followed by Fixer 2 for 30 minutes. Once the gel was fixed it then underwent three water washes at 10 minutes per wash. After the water washes, the gel was stained for 30 minutes using the silver stain solution. Excess stain was removed using three four-minute water washes. The gel was then immersed in the developer solution to visualize the stain. This took place for approximately 5 minutes or until the desired intensity was reached. To immediately stop the developing process the gel was placed in the stop solution for 10 minutes.

Aβ1-40 [4] = biological target: T1, Aβ1-40; test: TEM of Aβ1-40 fibrils; format: biochemical; conditions: Aβ1-40 20 μM; for Aβ1-40 fibril formation (TEM): compound 20 μM, following ThT aggregation assay, FIG. 11; for Aβ1-40 fibrils (TEM): absence of ThT
Procedure: (§5) A modified version of the procedure of Cohen et al. (Biochemistry 2006, 45: 4727-35) was followed for TEM analysis. Uranylacetate was used as negative stain (Electron Microscopy Sciences) and was made as a 3% solution and stored at 5° C. in the dark to reduce photodecay. Aspirated samples from ThT (Aβ1-40) and ThS (Tau 441) aggregation assays, or Aβ1-42 incubated (37° C.) for 30 min. in the presence and absence of compounds were used in the TEM analyses. Samples were carefully loaded on Formvar-coated 400 mesh copper grids (Electron Microscopy Sciences) as a 10 μL drop. After sitting for 60 seconds, excess fluid was gently dabbed off with filter paper. Next, the 3% uranylacetate was added as a drop onto the grid and left to stand for another 60 seconds. The excess fluid was again dabbed off by filter paper. Samples were left to dry for at least 30 minutes prior to being viewed on an electron microscope operating at 80 kV.

Aβ1-42 [5] = biological target: T2, Aβ1-42 (Homo sapiens, UniProt P05067); test: TEM of Aβ1-42 fibrils; format: biochemical; conditions: Aβ1-42 20 μM, absence of ThT, FIG. 13
T2 construct: Both Aβ1-40 and Aβ1-42 were purchased from Anaspec; purchased Anaspec
T2 sequence (P05067 672-713 limits assumed): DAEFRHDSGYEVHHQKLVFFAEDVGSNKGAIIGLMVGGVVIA
Procedure: as §5

α-synuclein = α-synuclein (Homo sapiens, UniProt P37840); test: ThT fluorescence assay, α-synuclein aggregation; format: biochemical; conditions: α-synuclein 4 μM; compound 100 μM and 20 μM; 96 hours, 37° C., FIG. 16
Procedure: (§6) The following procedures were used. The compounds were examined by circular dichroism (CD) to confirm their anti-amyloidogenic activity and were further evaluated for inhibition of both tau and α-synuclein aggregation in Thioflavin S (ThS) and ThT dye-binding fluorescence assays, respectively. The compounds were also evaluated in a MTT [3-(4,5-dimethylthiazol-2-yl)-2,5-diphenyltetrazolium bromide] cell viability assay (Kaneko, I., et al., J. Neurochem. (1995) 65: 2585-93). Pharmacokinetic (PK) testing was also performed. Compounds administered to mice (IP or PO dosing) had no toxicity at doses up to 300 mg/kg and were present in brain more than four hours after administration.
(§7) Dye-binding ThT/ThS protein aggregation assays for Aβ, tau and α-synuclein were performed as described in Example 8 of US2007/0015813.

[6] = tested on: APP/PS1 transgenic mice hippocampal slices; test: LTP electrophysiology in hippocampal slices; format: cell-based; conditions: 50 μM, FIG. 18
Procedure: Electrophysiological analysis was performed on males (see detailed description in Gong, B., el al., Cell (2006) 126: 775-88). Hippocampal slices (400 μm) were cut with a tissue chopper and maintained in an interface chamber at 29° C. for 90 min prior to recording. Briefly. CA1 fEPSPs were recorded by placing both the stimulating and the recording electrodes in CA1 stratum radiatum. Basal synaptic transmission was assayed by plotting the stimulus voltages against slopes of fEPSP. For LTP experiments, a 15 min baseline was recorded every min at an intensity that evokes a response ˜35% of the maximum evoked response. LTP was induced using θ-burst stimulation (4 pulses at 100 Hz, with the bursts repeated at 5 Hz and each tetanus including 3 ten-burst trains separated by 15 sec).

Tau 441 [7] = biological target: T3, Tau 441 (Homo sapiens, UniProt P10636); test: Tris-tricine SDS-PAGE, Tau 441 self-assembly following ThS aggregation assay; format: biochemical; conditions: FIG. 10; for effect on Tau 441 self-assembly, monomer fragmentation (SDS-PAGE): relative to control
T3 sequence (P10636 1-441 isoform P10636-8): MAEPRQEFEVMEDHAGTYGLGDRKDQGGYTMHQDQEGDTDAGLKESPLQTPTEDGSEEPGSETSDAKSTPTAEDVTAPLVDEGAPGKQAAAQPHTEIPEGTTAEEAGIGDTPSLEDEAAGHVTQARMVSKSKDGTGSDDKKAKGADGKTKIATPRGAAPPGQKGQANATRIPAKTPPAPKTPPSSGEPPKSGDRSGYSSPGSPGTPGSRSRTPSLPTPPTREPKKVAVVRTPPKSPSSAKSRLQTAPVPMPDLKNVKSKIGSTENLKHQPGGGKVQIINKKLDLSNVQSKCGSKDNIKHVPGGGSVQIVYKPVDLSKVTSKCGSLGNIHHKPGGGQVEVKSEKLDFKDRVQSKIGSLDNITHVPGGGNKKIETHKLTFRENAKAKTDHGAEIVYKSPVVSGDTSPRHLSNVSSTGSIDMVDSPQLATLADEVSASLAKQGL
Procedure: as §1, §2, §3, §4

Tau 441 [8] = biological target: T3, Tau 441; test: TEM of Tau 441 fibrils following ThS aggregation assay; format: biochemical; conditions: Tau 441 6 μM, compound 20 μM, FIG. 14
Procedure: as §5

Tau 441 [9] = biological target: T3, Tau 441; test: ThS fluorescence assay, Tau 441 aggregation; format: biochemical; conditions: Tau 441 6 μM; compound 50 μM and 10 μM; 24 hours, 37° C., FIG. 15
Procedure: as §6, §7

Aβ1-42 [10] = biological target: T2, Aβ1-42; test: Tris-tricine SDS-PAGE, Aβ1-42 self-assembly; format: biochemical; conditions: versus control, FIG. 8
Procedure: as §1
as §2, with “Solution B was then slowly added to solution A. 4) Developer (0.1 g citric acid, 1 mL formaldehyde, diluted to 1 L with Millie-Q water), 5) Stop solution (50 mL acetic acid, diluted to 1 L with Millie-Q water).” left out

T1 sequence (P05067 672-711 limits assumed): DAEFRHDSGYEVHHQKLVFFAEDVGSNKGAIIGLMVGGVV

## O=C(O)c1cccc2c(-c3c[nH]c4ccccc34)c[nH]c12 [QR-0112]
Aβ1-40 [1]
  IC50: 34.4 µM
[2]; 50 μM compound
  % cell viability, protection from Aβ40: significantly protective
[2]; 2 and 10 μM compound
  % cell viability, protection from Aβ40: trends towards protection
Aβ1-40 [3]
  effect on distribution of Aβ1-40 among states of assembly / monomer (SDS-PAGE): increase in the concentration of Aβ1-40 monomer
Aβ1-40 [4]
  Aβ1-40 fibril formation (TEM): increase in fibril formation but of a different morphology

## Oc1ccc2[nH]cc(-c3c[nH]c4ncccc34)c2c1 [QR-0161]
[2]; 20 and 50 μM compound
  % cell viability, protection from Aβ40: significantly active

## COc1ccc2[nH]cc(-c3c[nH]c4ccc(N)cc34)c2c1 [QR-0185]
Aβ1-40 [1]
  IC50: 12.5 µM
Aβ1-42 [5]; compound 100 μM
  Aβ1-42 fibrils (TEM): decrease in fibrils

## O=C(O)c1ccc2[nH]cc(-c3c(O)c(O)cc4ccccc34)c2c1 [QR-0194]
Aβ1-40 [1]
  IC50: 17.7 µM
Aβ1-40 [4]
  Aβ1-40 fibril formation (TEM): increase in fibril formation but of a different morphology
Aβ1-42 [5]; compound 20 μM
  Aβ1-42 fibrils (TEM): apparent increase in the number of fibrils
α-synuclein
  inhibition of α-synuclein aggregation (ThT fluorescence): showed inhibition

## O=C(O)c1ccc2[nH]cc(-c3ccc4cc(O)ccc4c3)c2c1 [QR-0217]
α-synuclein
  inhibition of α-synuclein aggregation (ThT fluorescence): showed inhibition
[6]
  rescue of LTP impairment: significantly rescued impairment of LTP; also recorded: significantly (P=0.022) rescuing impairment of LTP

## COc1ccc2cc(-c3c[nH]c4c(C(=O)O)cccc34)ccc2c1 [QR-0262, 3-(2-Methoxynaphthalen-6-yl)-1H-indole-7-carboxylic acid]
Aβ1-40 [1]
  IC50: 4.4 µM
Tau 441 [7]
  effect on Tau 441 self-assembly, monomer fragmentation (SDS-PAGE): no clear effect
Tau 441 [8]
  Tau 441 assemblies seen (TEM): spherical assemblies that were not present in the control
  Tau 441 fibril formation (TEM): increase in fibril formation
Tau 441 [9]
  inhibition of Tau 441 aggregation (ThS fluorescence): only moderately inhibited

## O=C(O)c1cc2cc(-c3ccc4cc(O)ccc4c3)ccc2c(Br)c1O [QR-0263, 4-bromo-3-hydroxy-7-(2-hydroxynaphthalen-6-yl)naphthalene-2-carboxylic acid]
Aβ1-40 [1]
  IC50: 1.93 µM
Tau 441 [7]
  Tau 441 dimer and trimer bands (SDS-PAGE): appearance of dimer and trimer bands
  effect on Tau 441 self-assembly, monomer fragmentation (SDS-PAGE): decreased fragmentation of tau 441 monomer
Aβ1-40 [4]; compound at 20, FIG. 12
  Aβ1-40 fibrils (TEM): reduction in fibrils
Tau 441 [9]
  inhibition of Tau 441 aggregation (ThS fluorescence): greatly inhibited

## O=C(O)c1cccc2c(-c3c(O)c(O)cc4ccccc34)c[nH]c12 [QR-0273]
Aβ1-40 [1]
  IC50: 10.3 µM
Aβ1-42 [10]
  effect on Aβ1-42 self-assembly (SDS-PAGE): increase in the presence of monomer and pentamer as well as the appearance of a dimer
Aβ1-40 [4]; compound 100 μM, FIG. 12
  Aβ1-40 fibrils (TEM): increase in the number of fibrils

## O=C(O)c1cc2cc(-c3ccc4c(c3)OCCO4)ccc2c(Br)c1O [QR-0281, 4-Bromo-7-(2,3-dihydrobenzo[b][1,4]dioxin-7-yl)-3-hydroxyynaphthalene-2-carboxylic acid]
Aβ1-40 [1]
  IC50: 4.6 µM
Tau 441 [7]
  Tau 441 dimer and trimer bands (SDS-PAGE): appearance of dimer and trimer bands
  effect on Tau 441 self-assembly, monomer fragmentation (SDS-PAGE): decreased fragmentation of tau 441 monomer
Tau 441 [8]
  Tau 441 assemblies seen (TEM): spherical assemblies that were not present in the control
  Tau 441 fibril formation (TEM): increase in fibril formation
Tau 441 [9]
  inhibition of Tau 441 aggregation (ThS fluorescence): greatly inhibited
